# Test results published in patent EP3828186B1.
# Where two headings read alike, the source gives them in different places.
# Details: rcm bond, Grubbs II
structure (smiles),measurement,setting,value
C[C@@H]1/C=C/C[C@H](NC(=O)OC(C)(C)C)c2cc(ccn2)-c2c(cnn2C(F)F)NC1=O,"ring closure, yield of all isomers","from C=CC[C@H](NC(=O)OC(C)(C)C)c1cc(-c2c(NC(=O)[C@H](C)C=C)cnn2C(F)F)ccn1, EtOAc, 5.0 mM, 77.0 °C, 24.0 h",76%
C[C@@H]1/C=C/C[C@H](NC(=O)OC(C)(C)C)c2cc(ccn2)-c2c(cnn2C)NC1=O,"ring closure, yield of all isomers","from C=CC[C@H](NC(=O)OC(C)(C)C)c1cc(-c2c(NC(=O)[C@H](C)C=C)cnn2C)ccn1, DCE, 34.7 mM, 120.0 °C, 0.5 h",23%
C[C@@H]1/C=C/C[C@H](NC(=O)OC(C)(C)C)c2ccnc(c2)-c2c(cnn2C)NC1=O,"ring closure, yield of all isomers","from C=CC[C@H](NC(=O)OC(C)(C)C)c1ccnc(-c2c(NC(=O)[C@H](C)C=C)cnn2C)c1, DCE, 18.8 mM, 120.0 °C, 0.5 h",19%
C[C@@H]1/C=C/C[C@H](NC(=O)OCc2ccccc2)c2cc(ccn2)-c2c(cnn2COCC[Si](C)(C)C)NC1=O,"ring closure, yield of all isomers","from C=CC[C@H](NC(=O)OCc1ccccc1)c1cc(-c2c(NC(=O)[C@H](C)C=C)cnn2COCC[Si](C)(C)C)ccn1, DCE, 108.0 mM, 120.0 °C, 0.5 h",42%
[2H]C([2H])([2H])n1ncc2c1-c1ccnc(c1)[C@@H](NC(=O)OC(C)(C)C)CC=C[C@@H](C)C(=O)N2,"ring closure, yield of all isomers","from [2H]C([2H])([2H])n1ncc(NC(=O)[C@H](C)C=C)c1-c1ccnc([C@H](CC=C)NC(=O)OC(C)(C)C)c1, DCE, 13.2 mM, 120.0 °C, 0.5 h",26%
